The results in this text go back to patent US20260114446A1, “Compositions, Methods and Devices for Control and Monitoring Insects” (Agriculture Victoria Services Pty Ltd, priority 2023, published 2026).

Type in all cases: in vivo
For test [1], the system named is Carpophilus truncatus. The experiment in a line: Field experiment of pheromone lure septa in an almond orchard (Example 3), C. truncatus catches. The settings on record: septa in bucket traps with co-attractant solution (45% ethanol, isopentyl alcohol) and Dichlorvos strip; 10 replicates; 6 weeks, samples fortnightly; p<0.001. On the procedure: A field experiment was designed to test the attractancy of the previously described C. truncatus Pheromone 2 under field conditions and the pheromonal (attractant) activity of newly identified Pheromone 3. […] All pheromones were tested together with a co-attractant mixture in the form of an aqueous ethanol and isopentyl alcohol solution, which acts synergistically to elicit a strong behavioural response in C. truncatus.
Pheromone test lures were loaded on white Precision Seal® rubber septa (8 mm OD, Sigma Aldrich product code: Z553913) with butylated hydroxytoluene used an antioxidant. The quantities of individual compounds applied on the septa were determined by SPME-GC-MS analyses of test septa at days 1 and 3 to produce the two pheromones in approximately equal ratios. The quantity of antioxidant was chosen based on the existing literature as 10% of the ratio of the dominant pheromone (Table 2). Hexane dilutions of the neat pheromones were prepared, and desired quantities loaded onto the septa. […]
The field trial was carried out from December 2021 in a commercial almond orchard located near Mildura, Victoria, Australia. […] Beetles present in different traps were identified and counted under a stereomicroscope. […]
Field data were analysed using a Generalized Linear Mixed Model (GLMM) fitted with a negative binomial distribution using the glmmTMB package (Brooks et al. 2019). […]

Test [2] deals with Carpophilus truncatus. The experiment in a line: Two-week field trial of lure treatments (Example 4), C. truncatus catches. The settings on record: 20 repeats per treatment, with co-attractant, high beetle populations. Here is the method: (§1) A short trial was carried out over two weeks. Treatments were randomised and replicated in 10 tree rows with approximately 50 m spacing between traps (10 rows×2 treatments—20 repeats per treatment; 3 treatments of 20 repeats is 60 traps used). The treatments are shown in Table 3: Data was analysed in a similar way to Example 3 using GLMM with trap catches as response variable, lure treatment as fixed factor and row and column as random (spatial features). Turkey's adjusted post hoc tests for multiple comparisons of a family of three estimates. The results of the mixed model are: Wald χ2=[…], p=2.64 10^−14.

Test [3] relates to other Carpophilus species. The experiment in a line: Two-week field trial of lure treatments (Example 4), catches of other Carpophilus species. The settings on record: 20 repeats per treatment, with co-attractant. On the procedure: as §1

Turning to `C/C=C(C)/C=C(C)/C=C(C)/C=C/CC` [Phero 2, (E,E,E,E)-3,5,7-trimethyl-2,4,6,8-undecatetraene], the “C. truncatus beetle catches” value with Carpophilus truncatus [1] is “caught significantly more beetles than the commercial tri-species septa”.
`CCCCCCCCCCCCCC=O` [Phero 3, tetradecanal]: the “C. truncatus beetles caught” value with Carpophilus truncatus [2] is “caught significantly less C. truncatus and other Carpophilus species beetles than Phero 2 and Phero 2+Phero 3”. Besides, the “Other Carpophilus species beetles caught” value in test [3] was “caught significantly less C. truncatus and other Carpophilus species beetles than Phero 2 and Phero 2+Phero 3”.
